Laboratory results taken from ChEMBL document CHEMBL1201862, “PubChem BioAssay data set” (2004).
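Five compound concentrations were applied to cells in 96-well plates for 48 hours; endpoints were derived by simple linear interpolation of the resulting dose-response curve. Here, GI50 denotes the concentration required for 50% inhibition of growth.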 The source made the active and inactive calls. Rule as the data show it: active = GI50 up to about 1.1 µM and inactive = higher.

Experiments:
Experiment in all cases: NCI-60 cell line screen, 48 h
TK-10 = system: TK-10
IGROV-1 = system: IGROV-1
CCRF-CEM = system: CCRF-CEM
OVCAR-4 = system: OVCAR-4
NCI-H226 = system: NCI-H226
SR = system: SR
SK-MEL-5 = system: SK-MEL-5
NCI-H23 = system: NCI-H23
SF-268 = system: SF-268
HOP-62 = system: HOP-62
RXF 393 = system: RXF 393
SK-MEL-2 = system: SK-MEL-2
KM12 = system: KM12
SF-295 = system: SF-295
UO-31 = system: UO-31
MOLT-4 = system: MOLT-4
RPMI-8226 = system: RPMI-8226
HOP-92 = system: HOP-92

SMILES | GI50 (TK-10) | GI50 (IGROV-1) | GI50 (CCRF-CEM) | GI50 (OVCAR-4) | GI50 (NCI-H226) | GI50 (SR) | GI50 (SK-MEL-5) | GI50 (NCI-H23) | GI50 (SF-268) | GI50 (HOP-62) | GI50 (RXF 393) | GI50 (SK-MEL-2) | GI50 (KM12) | GI50 (SF-295) | GI50 (UO-31) | GI50 (MOLT-4) | GI50 (RPMI-8226) | GI50 (HOP-92)
COc1cccc(C(=O)O)c1Cc1cccc2ccccc12 | > 100 µM (inactive) | > 100 µM (inactive) | > 100 µM (inactive) | > 100 µM (inactive) | > 100 µM (inactive) | > 100 µM (inactive) | > 100 µM (inactive) | > 100 µM (inactive) | > 100 µM (inactive) | > 100 µM (inactive) | > 100 µM (inactive) | > 100 µM (inactive) | > 100 µM (inactive) | > 100 µM (inactive) | > 100 µM (inactive) | > 100 µM (inactive) |  | 
CO[C@H](C(=O)O[C@H]1C(=O)N2CC[C@@H]3CCC[C@H]1C32C)c1ccccc1 (some centres undefined) |  | > 100 µM (inactive) | > 100 µM (inactive) | > 100 µM (inactive) | > 100 µM (inactive) | > 100 µM (inactive) | > 100 µM (inactive) | > 100 µM (inactive) | > 100 µM (inactive) | > 100 µM (inactive) | > 100 µM (inactive) | > 100 µM (inactive) | > 100 µM (inactive) | > 100 µM (inactive) | > 100 µM (inactive) | > 100 µM (inactive) | > 100 µM (inactive) | 
Nc1cccc2c1C(=O)c1cccc(N)c1C2=O | > 100 µM (inactive) | > 100 µM (inactive) | > 100 µM (inactive) | > 100 µM (inactive) | > 100 µM (inactive) |  | > 100 µM (inactive) | > 100 µM (inactive) | > 100 µM (inactive) | > 100 µM (inactive) | 46.3 µM (inactive) | > 100 µM (inactive) | > 100 µM (inactive) |  | > 100 µM (inactive) | > 100 µM (inactive) | > 100 µM (inactive) | > 100 µM (inactive)
CN(C)CCNC(=O)c1cccc2ccc(-c3ccncc3)nc12 | 2.21 µM (inactive) | 1.47 µM (inactive) | 1.87 µM (inactive) | 2.79 µM (inactive) |  |  | 1.55 µM (inactive) | 1.8 µM (inactive) | 3.79 µM (inactive) | 1.66 µM (inactive) | 2.36 µM (inactive) | 4.02 µM (inactive) | 3.67 µM (inactive) | 2.88 µM (inactive) | 1.94 µM (inactive) | 0.306 µM (active) |  | 2.16 µM (inactive)
N=C(N)N/N=C/c1c[nH]c2ccccc12 | > 100 µM (inactive) | > 100 µM (inactive) | > 100 µM (inactive) | > 100 µM (inactive) | > 100 µM (inactive) | > 100 µM (inactive) | > 100 µM (inactive) | > 100 µM (inactive) | > 100 µM (inactive) | > 100 µM (inactive) | > 100 µM (inactive) | > 100 µM (inactive) | > 100 µM (inactive) | > 100 µM (inactive) | > 100 µM (inactive) | > 100 µM (inactive) | > 100 µM (inactive) | 
Nc1ccc(C(=O)NN2C(=O)C(Cl)C2c2ccc([N+](=O)[O-])cc2)cc1 (centres undefined) | 19.2 µM (inactive) | 5.31 µM (inactive) | 3.54 µM (inactive) | 12.7 µM (inactive) | 17.2 µM (inactive) |  | 15.5 µM (inactive) | 7 µM (inactive) | 1.99 µM (inactive) | 11 µM (inactive) |  | 16.9 µM (inactive) | 10.5 µM (inactive) | 13.8 µM (inactive) | 15.6 µM (inactive) | 3.2 µM (inactive) | 15.4 µM (inactive) | 17.5 µM (inactive)
Cc1nc(-c2nc(C)c(C(=O)/C=C/c3ccc(N(C)C)cc3)s2)sc1C(=O)/C=C/c1ccc(N(C)C)cc1 | > 100 µM (inactive) | 31 µM (inactive) | > 100 µM (inactive) | 46 µM (inactive) | > 100 µM (inactive) | > 100 µM (inactive) |  | > 100 µM (inactive) | > 100 µM (inactive) | > 100 µM (inactive) | > 100 µM (inactive) | > 100 µM (inactive) | 40.9 µM (inactive) | 31.9 µM (inactive) | > 100 µM (inactive) | > 100 µM (inactive) |  | 
Cc1c(C(=O)Nc2ccc(Cl)c(C(F)(F)F)c2)oc2cc(O)ccc2/c1=N\NC(N)=S | > 100 µM (inactive) | > 100 µM (inactive) | > 100 µM (inactive) | > 100 µM (inactive) | > 100 µM (inactive) | > 100 µM (inactive) | > 100 µM (inactive) | > 100 µM (inactive) | > 100 µM (inactive) | > 100 µM (inactive) | > 100 µM (inactive) | > 100 µM (inactive) | > 100 µM (inactive) | > 100 µM (inactive) | > 100 µM (inactive) | > 100 µM (inactive) | > 100 µM (inactive) | 
CCC1c2cc3n(c(=O)c2COC1O)Cc1c-3nc2ccccc2c1Cl (centres undefined) | > 100 µM (inactive) | > 75.3 µM (inactive) | 3.34 µM (inactive) | > 65.5 µM (inactive) | 39.6 µM (inactive) |  | 29.4 µM (inactive) | 28.7 µM (inactive) | 14.4 µM (inactive) | 14.8 µM (inactive) | 73.8 µM (inactive) | > 100 µM (inactive) | > 100 µM (inactive) | 20.9 µM (inactive) | 19.4 µM (inactive) | 3.28 µM (inactive) | > 29.3 µM (inactive) | > 100 µM (inactive)
Cc1ccc([S+](c2ccccc2)c2cc(C)ccc2C)cc1 (centres undefined) |  | 0.117 µM (active) | 0.438 µM (active) | 29.4 µM (inactive) |  | 24.6 µM (inactive) | 0.53 µM (active) |  | 6.64 µM (inactive) | 15.1 µM (inactive) |  |  | 2.85 µM (inactive) | 12.4 µM (inactive) | > 100 µM (inactive) | 3.65 µM (inactive) | 3.66 µM (inactive) | 
c1ccc2c(c1)CCc1c(-c3n[nH]c4c3CCc3ccccc3-4)n[nH]c1-2 | > 100 µM (inactive) | > 100 µM (inactive) | > 100 µM (inactive) |  | > 100 µM (inactive) | 46.9 µM (inactive) | > 100 µM (inactive) | > 100 µM (inactive) | > 100 µM (inactive) | > 100 µM (inactive) |  | > 100 µM (inactive) | > 100 µM (inactive) | > 100 µM (inactive) | > 100 µM (inactive) | 87.9 µM (inactive) |  | > 100 µM (inactive)
CCOC(=O)c1cc(/C=C/C(C)=C/C(=O)OC)oc1C | > 100 µM (inactive) | > 100 µM (inactive) | > 100 µM (inactive) | > 100 µM (inactive) |  | > 100 µM (inactive) |  | > 100 µM (inactive) | > 100 µM (inactive) | > 100 µM (inactive) |  | > 100 µM (inactive) | > 100 µM (inactive) | > 100 µM (inactive) | > 100 µM (inactive) | > 100 µM (inactive) | > 100 µM (inactive) | > 100 µM (inactive)
CN(C)c1ccc(C(C=C2c3ccccc3Sc3ccccc32)=C(C#N)C#N)cc1 | > 100 µM (inactive) | > 100 µM (inactive) | > 100 µM (inactive) | 16 µM (inactive) |  |  | > 100 µM (inactive) | > 100 µM (inactive) | > 100 µM (inactive) | 93.8 µM (inactive) | 29 µM (inactive) | > 100 µM (inactive) | > 100 µM (inactive) | 87.7 µM (inactive) | 82.8 µM (inactive) | > 100 µM (inactive) | > 100 µM (inactive) | 
COc1ccc2c(c1)CC1NC2Cc2ccccc21 (centres undefined) | > 100 µM (inactive) | > 100 µM (inactive) | > 100 µM (inactive) | > 100 µM (inactive) |  |  | > 100 µM (inactive) | > 100 µM (inactive) | > 100 µM (inactive) | > 100 µM (inactive) |  | > 100 µM (inactive) | > 100 µM (inactive) | > 100 µM (inactive) | > 100 µM (inactive) | > 100 µM (inactive) | > 100 µM (inactive) | 
CCOC(=O)/C(=C\c1ccccc1)C(=O)O |  | > 100 µM (inactive) | > 100 µM (inactive) | > 100 µM (inactive) | > 100 µM (inactive) | > 100 µM (inactive) | > 100 µM (inactive) | > 100 µM (inactive) | > 100 µM (inactive) | > 100 µM (inactive) |  | > 100 µM (inactive) | > 100 µM (inactive) | > 100 µM (inactive) | > 100 µM (inactive) | > 100 µM (inactive) | > 100 µM (inactive) | > 100 µM (inactive)
Clc1ccc(C2=Nc3ccccc3SC(c3cccs3)C2)cc1 (centres undefined) | 17.3 µM (inactive) | 14 µM (inactive) |  | 14 µM (inactive) |  | 2.43 µM (inactive) | 16.5 µM (inactive) | 14.1 µM (inactive) | 16.3 µM (inactive) | 18.2 µM (inactive) | 10.7 µM (inactive) |  | 10.7 µM (inactive) | 15 µM (inactive) | 13.6 µM (inactive) | 20.9 µM (inactive) | 2.42 µM (inactive) | 
CCOC(=O)C1=C(Nc2cccc3ccccc23)OCC1=O |  | > 100 µM (inactive) | > 100 µM (inactive) | > 100 µM (inactive) | > 100 µM (inactive) | > 100 µM (inactive) | > 100 µM (inactive) | > 100 µM (inactive) | > 100 µM (inactive) | > 100 µM (inactive) |  | > 100 µM (inactive) | > 100 µM (inactive) |  | > 100 µM (inactive) | > 100 µM (inactive) | > 100 µM (inactive) | > 100 µM (inactive)
N=C(N)NNC(=O)CCCCCCCC(=O)NNC(=N)N | > 100 µM (inactive) | > 100 µM (inactive) | > 100 µM (inactive) | 33.9 µM (inactive) |  |  | > 100 µM (inactive) | > 100 µM (inactive) | > 100 µM (inactive) | > 100 µM (inactive) | > 100 µM (inactive) | > 100 µM (inactive) | > 100 µM (inactive) | > 100 µM (inactive) | > 100 µM (inactive) |  |  | 
